The record followed here is PubChem BioAssay AID1159563 (GlaxoSmithKline (GSK), 2015).

Activity calls are given as the source filed them. No rule for the calls is given here.

A word on the IC50: it is the concentration that inhibits the measured activity by half.

For this test, the system named is HepG2 cytotoxicity. The experiment in a line: human hepatoma cell viability loss – cytotoxicity control (AID 1159563).
With `CCCCN(C(=O)c1ccc(NC(=O)C(C)C)cc1)c1ccccc1`, the IC50 was > 100 µM (inactive).

With `COc1ccc(-c2nc3ccncc3c(=O)n2CCOc2ccccc2)cc1`, the IC50 is > 100 µM (inactive).

In the case of `Cc1ccccc1NS(=O)(=O)c1ccc2[nH]cc(C(=O)NC3CCCC(C)C3C)c(=O)c2c1` (configuration not stated), the IC50 was 40 µM.

Consider `COc1cc(OC)cc(C(NS(=O)(=O)c2ccc(Cl)c(C(F)(F)F)c2)c2nccn2C)c1` (configuration not stated), for which the IC50 was > 100 µM (inactive).

For the molecule `CCc1ccc2nc(NC(=O)c3cc(N4CCOCC4)ccn3)sc2c1`, the IC50 was > 100 µM (inactive).

On to `Cc1c(CNC(=O)c2ccc(Cn3cc(Cl)c([N+](=O)[O-])n3)cc2)cnn1C`, for which the IC50 is > 100 µM (inactive).

On to `CN(C)CCOc1ccc(N2CCN(S(=O)(=O)c3ccc(Cl)cc3)CC2)cc1`, for which the IC50 was 50 µM.

Take `Cc1cc(NC(=O)c2ccc([N+](=O)[O-])s2)ccc1Br`: the IC50 is 40 µM.

As to `CN(Cc1nc2ccc(C(=O)NCC3CCCCC3)cc2[nH]1)C1CCCc2cccnc21` (configuration not stated), the IC50 was 16 µM.

For the molecule `O=C(c1cc2cc(Cl)ccc2[nH]1)N1CCCCC1c1cccnc1` (configuration not stated), the IC50 is 40 µM.

As to `COc1ccc(C(C)(C)C)cc1S(=O)(=O)n1ccnc1`, the IC50 was > 100 µM (inactive).

With `O=c1ccc2ccc(F)c3c2n1C[C@H]3CN1CCC(NCc2cc3ccccc3o2)CC1`, the IC50 is 40 µM.

On to `O=C1COC(c2ccccc2)(c2ccccc2)CN1C1CCN(Cc2ccc(-n3ccnc3)cc2)CC1`, for which the IC50 is 50 µM.

For `CN(C)CCN(C)Cc1ccc(F)cc1NS(=O)(=O)c1ccc(Cl)c(Cl)c1`, the IC50 is 40 µM.

For the molecule `Cc1ccc(C)c(CN2C(=O)NC3(CCc4ccccc43)C2=O)c1` (configuration not stated), the IC50 was > 100 µM (inactive).

Consider `CCN(Cc1nc2ccc(C(=O)N3CCN(c4ncccn4)CC3)cc2[nH]1)C1CCCc2cccnc21` (configuration not stated), for which the IC50 is > 100 µM (inactive).

Take `O=c1cc(CSc2ccc(Cl)cc2)nc(-c2ccccn2)[nH]1`: the IC50 is > 100 µM (inactive).

In the case of `COc1cc(C(C)C)c(S(C)(=O)=O)cc1C(=O)N1CCN(c2ccccc2Cl)CC1`, the IC50 is > 100 µM (inactive).

For `O=C1CN(C2CCCc3c(OCc4ccncc4)cccc32)C(=O)N1C1CCCCC1` (configuration not stated), the IC50 is > 100 µM (inactive).

In the case of `CC(=O)Nc1ccc(-c2ccnc(Nc3cccc(C#N)c3)n2)cc1`, the IC50 is > 100 µM (inactive).

On to `CCc1c(C)nc(-n2nc(C)cc2NC(=O)COc2ccccc2F)[nH]c1=O`, for which the IC50 was > 100 µM (inactive).

As to `O=S(=O)(NCC(c1cccnc1)N1CCN(c2ccccc2F)CC1)c1ccc(F)cc1` (configuration not stated), the IC50 is > 100 µM (inactive).

With `O=C1c2cnc(N3CCCC3)nc2CN1c1ccc2c(c1)OCO2`, the IC50 was > 100 µM (inactive).

With `COc1ccc(-c2cnc(C)o2)cc1S(=O)(=O)Nc1ccc(C)cc1C`, the IC50 was > 100 µM (inactive).

On to `Cc1nn(-c2nc(N)nc(-c3ccccn3)n2)c(C)c1Cc1ccccc1`, for which the IC50 was > 100 µM (inactive).

With `COc1ccc(C)cc1-c1csc(NC(=O)C(C)n2ccnc2)n1` (configuration not stated), the IC50 was > 100 µM (inactive).

For `O=C(NCc1nnc2n1CCCCC2)c1ccc(-c2ccc(F)cc2)o1`, the IC50 was > 100 µM (inactive).

`Cc1nn(C2CCS(=O)(=O)C2)c(C)c1CN(C)C(=O)C=Cc1sc2ccccc2c1Cl` (configuration not stated): the IC50 was > 100 µM (inactive).

Regarding `COc1ccc(CN2C(=O)C(O)(CC(=O)c3ccncc3)c3cc(Br)ccc32)cc1OC` (configuration not stated), the IC50 is 40 µM.

For `CCOc1ccc(Nc2ccc(S(=O)(=O)N3CCN(C)CC3)cc2[N+](=O)[O-])cc1OCC`, the IC50 is > 100 µM (inactive).

`CC(C(=O)Nc1ccccc1F)N(C)CC(=O)Nc1cccc2ccccc12` (configuration not stated): the IC50 is > 100 µM (inactive).

As for `Cc1ccc(Nc2nc(C3CCCN3Cc3ccn[nH]3)cs2)nc1` (configuration not stated), the half-maximal inhibitory concentration (IC50) was 32 µM.

For `CC(=O)NC1(c2ccccc2)CCN(CC(=O)Nc2ccccc2-c2ccccc2)CC1`, the IC50 was > 100 µM (inactive).

Take `COc1ccc(NS(=O)(=O)c2cc(NC(=O)Cc3ccc(C)cc3)ccc2N2CCOCC2)cc1`: the IC50 is > 100 µM (inactive).

Regarding `COc1ccc(C(=O)[C@H]2C[C@@H]2CN(Cc2ccccn2)Cc2ccccn2)cc1`, the IC50 was > 100 µM (inactive).

For `CCC(c1ccc(F)cc1)n1cncc1-c1cnn(C)c1` (configuration not stated), the IC50 is > 100 µM (inactive).

As to `CC(=O)Nc1ccc(-c2noc(CC3CCCN(Cc4cccc(F)c4C)C3)n2)cc1` (configuration not stated), the IC50 was > 100 µM (inactive).

For `COc1ccc(-c2nc3ncccc3o2)cc1NC(=O)c1cccs1`, the IC50 is > 100 µM (inactive).

Turning to `CCc1cc(C(=O)Nc2nccn2-c2ccccc2)cs1`, the IC50 was > 100 µM (inactive).

`COc1ncc(-c2ccc3ncnc(N4CCOCC4)c3c2)cc1NS(C)(=O)=O`: the IC50 was > 100 µM (inactive).

As for `O=C(NCCCn1cnc2ccccc21)c1ccc(NC(=O)c2ccco2)cc1`, the IC50 was 16 µM.

In the case of `Cn1nc(C(=O)N2CCc3ccccc32)c2c1CCS(=O)(=O)C2`, the IC50 was > 100 µM (inactive).

Regarding `O=C(NCC1CCCCC1)c1cnns1`, the IC50 is 40 µM.

In the case of `NC(=O)c1cc(NC(=O)c2ccccc2COc2ccccc2)ccc1Cl`, the IC50 is > 100 µM (inactive).

On to `COc1cccc(S(=O)(=O)Nc2ccc3c(c2)CC(N2CCC(NC(=O)C4CC4)CC2)C3)c1` (configuration not stated), for which the IC50 is > 100 µM (inactive).

For `CC(C(=O)Nc1ccc(Br)cc1)N1CCN(c2ccc([N+](=O)[O-])cc2)CC1` (configuration not stated), the IC50 was > 100 µM (inactive).

Take `COc1ccc(NS(=O)(=O)c2cc(-c3cc(C)[nH]n3)ccc2C)cc1OC`: the IC50 was > 100 µM (inactive).

Take `CC(C)S(=O)(=O)c1ccc(-c2cnc(N)c3cc(-c4ccnc(N)n4)ccc23)cc1`: the IC50 was 16 µM.

In the case of `Nc1nonc1-c1nc2cncc(C(=O)N3CC[C@H](N)C3)c2n1CC1CC1`, the IC50 was > 100 µM (inactive).

Take `CCc1nn(-c2ncc(F)c(NC(C)C)n2)c(N)c1C1CCCCC1`: the IC50 is 32 µM.

`Cc1cc(Br)sc1CNCCCNc1cc(=O)c2ccccc2[nH]1`: the IC50 was 40 µM.

Consider `CCN(CC)S(=O)(=O)c1ccc(C(=O)Nc2cc(C)nn2-c2nc(C)c(C)c(=O)[nH]2)cc1`, for which the IC50 is > 100 µM (inactive).

Consider `CN(Cc1cc2ccccc2s1)c1ncc2c(N)nc(N)nc2n1`, for which the IC50 was 40 µM.

For the molecule `COc1cc2c(cc1OC)[C@H]1[C@@H](C)c3ccc(OC)c(OC)c3CN1CC2`, the IC50 is > 100 µM (inactive).

Consider `CC(C)(C)CC(=O)NCCc1csc(-c2ccc(F)cc2)n1`, for which the IC50 is > 100 µM (inactive).

As to `O=C(c1ccccc1)N1CCC(C(=O)N2CCC(Oc3ccccc3Cl)CC2)CC1`, the IC50 was > 100 µM (inactive).

For `O=C(CSc1ccc(-c2ccccn2)nn1)Nc1ccc(Cl)cc1`, the IC50 is > 100 µM (inactive).

With `O=C1CN(C(=O)c2cccc(Nc3ncc(-c4ccc5c(c4)OCO5)cn3)c2)CCN1`, the IC50 was > 130 µM (inactive).

Turning to `COc1ccc(C2=NCC(CSc3nnc(-c4ccc5c(c4)OCO5)o3)S2)cc1` (configuration not stated), the IC50 is > 100 µM (inactive).

On to `Cc1occc1C(=O)Nc1ccccc1C(=O)Nc1nccs1`, for which the IC50 is > 100 µM (inactive).

Regarding `Cc1[nH]nc(-c2nc3ccccc3[nH]2)c1C(=O)NC1CCCNC1` (configuration not stated), the IC50 was > 100 µM (inactive).

For `FC(F)(F)c1cc(C2CCCN(Cc3c[nH]c4ccccc34)C2)nc2ncnn12` (configuration not stated), the IC50 is > 100 µM (inactive).

As to `c1ccc(Nc2nc3ccccc3[nH]2)nc1`, the IC50 was 79 µM.

As for `N#CN1CC[C@@H](NC(=O)Nc2ccccc2Oc2ccccc2)C1`, the 50% inhibitory concentration (IC50) was 40 µM.

Turning to `O=C(Nc1nc(-c2ccc(S(=O)(=O)N3CCOCC3)cc2)cs1)c1ccc([N+](=O)[O-])cc1`, the IC50 is > 100 µM (inactive).

In the case of `C[C@@H](Oc1cc(-n2cnc3ccc(CC(O)CO)cc32)sc1C(N)=O)c1ccccc1Cl` (some centres not stated), the IC50 is > 100 µM (inactive).

Take `CCN(CC)S(=O)(=O)c1ccc(C)c(NC(=O)c2cc(Cl)c3c(c2)OCO3)c1`: the IC50 is > 100 µM (inactive).

Consider `CC(=O)Nc1ccc(CN2CCC(N3CC(c4ccccc4)(c4ccccc4)OCC3=O)CC2)cc1`, for which the 50% inhibitory concentration (IC50) is 79 µM.

Consider `CCS(=O)(=O)c1cccc(C(=O)Nc2nc(-c3ccccn3)cs2)c1`, for which the IC50 was 25 µM.

In the case of `Cc1cc(Nc2cc(C3CC3)[nH]n2)nc(N2CCCC2)n1`, the IC50 was 32 µM.

In the case of `Cc1c(C(C)NC(=O)Nc2cccc(Cl)c2)sc2ncnn12` (configuration not stated), the IC50 is > 100 µM (inactive).

Consider `CC(C)c1cc(C(=O)N2CCCC(c3cc4ncccc4[nH]3)C2)on1` (configuration not stated), for which the IC50 is > 100 µM (inactive).

Take `CCOc1ccc(CN(C)Cc2nc(N)nc(Nc3ccc(C)cc3)n2)cc1`: the IC50 was 32 µM.

On to `O=C(NCCc1csc(-c2cccc(F)c2)n1)c1ccco1`, for which the IC50 is > 100 µM (inactive).

Take `CC(C)(C)C(O)(CCc1ccc(Cl)cc1)Cn1cncn1` (configuration not stated): the IC50 was > 100 µM (inactive).

Turning to `CCCNC(=O)Nc1cccc(-c2nc3ncccc3o2)c1`, the IC50 is > 100 µM (inactive).

With `CCC(=O)Nc1ccc(-c2nc3ccc(Cl)cc3[nH]2)cc1`, the IC50 was > 100 µM (inactive).

In the case of `COc1cc(Nc2nccc(Nc3onc(C)c3C)n2)cc(S(=O)(=O)C2CCOCC2)c1`, the IC50 is 32 µM.

`CCN(Cc1ccncc1)Cc1ccc(NC(=O)c2cc(-c3ccc(F)cc3)n[nH]2)cc1`: the IC50 is > 100 µM (inactive).

On to `CN(C)S(=O)(=O)c1cccc(C(=O)Nc2nc(-c3ccccn3)cs2)c1`, for which the IC50 is > 100 µM (inactive).

Take `COc1ccc(S(=O)(=O)Nc2ccc(CN3CCN(C(=O)c4cccc(C#N)c4)CC3)cc2)cc1`: the IC50 is > 100 µM (inactive).

Consider `c1ccc(-c2nc(NC3CCCCC3)cc(C3CC3)n2)nc1`, for which the IC50 is 40 µM.

In the case of `Cc1cccnc1NC(=O)c1cccc(OCc2c(C)noc2C)c1`, the IC50 was > 100 µM (inactive).

Turning to `CC(C)(C)Nc1nc(-c2ccccn2)nc2ccccc12`, the IC50 was 20 µM.

Take `CCCn1c(NC(=O)Cc2ccc(Cl)cc2)nc2ccccc21`: the IC50 is > 100 µM (inactive).

On to `CCN(CC)S(=O)(=O)c1ccc(OC)c(NC(=O)c2ccc([N+](=O)[O-])s2)c1`, for which the IC50 is > 100 µM (inactive).

For `Cn1nc([N+](=O)[O-])nc1N1CCCCC1`, the IC50 is > 100 µM (inactive).
